Laboratory results as given in US20020107250A1, “Rapid-onset formulation of a selective cyclooxygenase-2 inhibitor” (priority 2000, published 2002).

Assay: Solubility of celecoxib and valdecoxib in various solvent liquids
Assay type: physicochemical
Method: Aliquots of a solvent liquid were then added dropwise in approximately 100 mg increments to the solid sample. The resulting mixture was vortexed and/or sonicated between aliquot additions. […] Solubility values preceded by the<symbol denote that, at the particular concentration shown, the mixture was still cloudy, i.e., not all of the drug was fully in dissolved form.

Compound | Solubility in a DGME/water mixture compared with a PEG-400/water mixture (same ratio of mixture ingredients) | Solubility (solvent liquid: Capmul MCM (caprylic/capric mono- and diglycerides)) | Solubility (solvent liquid: Labrasol/DGME/propylene glycol laurate 40:40:20 w/w) | Solubility (solvent liquid: Labrasol/DGME/propylene glycol laurate 45:45:10 w/w) | Solubility (solvent liquid: Miglyol 812 (caprylic/capric triglycerides)) | Solubility (solvent liquid: Tagat TO (polyoxyethylene glyceryl trioleate)) | Solubility (solvent liquid: Tagat TO/Capmul MCM 1:1 w/w) | Advantage in solubility for DGME over propylene glycol (DGME versus propylene glycol) | Solubility (solvent liquid: polyethylene glycol 400) | Solubility (solvent liquid: propylene glycol)
Cc1ccc(-c2cc(C(F)(F)F)nn2-c2ccc(S(N)(=O)=O)cc2)cc1 [celecoxib, 4-[5-(4-methylphenyl)-3-(trifluoromethyl)-1H-pyrazol-1-yl]benzenesulfonamide] | significantly higher | 19 to 21 mg/g | 288 to 297 mg/g | 313 to 325 mg/g | 6 to 12 mg/g | 24 to 40 mg/g | 34 to 52 mg/g | – | – | –
Cc1onc(-c2ccccc2)c1-c1ccc(S(N)(=O)=O)cc1 [valdecoxib, 4-[5-methyl-3-phenylisoxazol-4-yl]benzenesulfonamide] | – | – | – | – | – | – | – | approximately tenfold advantage in solubility | 50 to 85 mg/g | 10 to 20 mg/g
